The source of these data is ChEMBL document CHEMBL1201862, “PubChem BioAssay data set” (2004).

Molecules are shown by their SMILES. The source made the active and inactive calls. Bounds are passed on as bounds.

Experiment [1] can be described thus: insulin promoter down-regulators in MIN6 cells, imaging, high-content screening, mouse beta cells (AID 1628). It counts as functional.
A short description of experiment [2]: cytotoxicity in MIN6 insulinoma cells, dose response, cytotoxicity control, cell-based, mouse insulinoma (AID 2122).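 Further: confirmatory high-throughput counterscreen run to flag cytotoxic compounds; mouse MIN-6 beta cells carrying an insulin promoter eGFP reporter.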 It counts as functional.
For a further experiment, the target named is Protein Wnt-3a (Mus musculus, UniProt P27467). Kind of experiment: Wnt3a-driven reporter signaling inhibition, dose response, selectivity assay for Gli-SUFU antagonist project, Wnt-LIGHT cells, luminescence (AID 651570).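 Further: Wnt-LIGHT reporter cells stimulated with conditioned medium from Wnt3a-producing cells.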 Particulars: read-out: IC50_Mean. The experiment is classed as functional.
A short description of experiment [3]: microbe, parasite or virus in culture. It counts as functional. Particulars: Mycobacterium tuberculosis.
Experiment [4] can be described thus: Counterscreen for AddAB inhibitors: absorbance-based bacterial cell-based high throughput dose response assay for inhibitors of bacterial viability. [Related pubchem assays (depositor defined):AID435030, AID449728, AID449731, AID488942, AID488955, AID488956]. It counts as functional. Background: Counterscreens check selectivity or assay interference.
The target in another experiment is Exodeoxyribonuclease V (Escherichia coli (strain K12), UniProt P04993+P07648+P08394). Kind of experiment: E. coli RecBCD inhibitors, dose response, counter-screen for AddAB inhibitor project, absorbance, V66 E. coli, mutant T4 phage (AID 492957). The experiment is classed as functional, cell-based, Escherichia coli str. K-12 substr. MG1655.
The nature of experiment [5]: Luminescence Cell-Based Dose Retest to Confirm Inhibitors of Cancer Stem Cells. [Related pubchem assays (depositor defined):AID2717, AID2721]. It counts as functional. Particulars: Homo sapiens.
In experiment [6] the target is Lysine-specific demethylase 4C (Homo sapiens, UniProt Q9H3R0). Kind of experiment: GASC-1 (JMJD2C) histone demethylase inhibitors, dose response, biochemical, DELFIA europium, cherry-picked samples (AID 488835). The experiment is classed as functional.
The target in experiment [7] is G-protein coupled receptor 55 (Homo sapiens, UniProt Q9Y2T6). Description: GPR55 antagonists, SAR follow-up, counter-screen for GPR35 antagonist project, imaging, image-based (AID 2397). The experiment is classed as functional.
Experiment [8] addresses Voltage-dependent T-type calcium channel subunit alpha-1H (Homo sapiens, UniProt O95180). Description: Cav3.2 T-type channel blockers, cell-based, SynthLib3 library, HEK293 Cav3.2, fluorescence (AID 493041). The experiment is classed as functional.
Experiment [9] deals with T1, Alkaline phosphatase, tissue-nonspecific isozyme (Homo sapiens, UniProt P05186).
T1 sequence (P05186 whole entry): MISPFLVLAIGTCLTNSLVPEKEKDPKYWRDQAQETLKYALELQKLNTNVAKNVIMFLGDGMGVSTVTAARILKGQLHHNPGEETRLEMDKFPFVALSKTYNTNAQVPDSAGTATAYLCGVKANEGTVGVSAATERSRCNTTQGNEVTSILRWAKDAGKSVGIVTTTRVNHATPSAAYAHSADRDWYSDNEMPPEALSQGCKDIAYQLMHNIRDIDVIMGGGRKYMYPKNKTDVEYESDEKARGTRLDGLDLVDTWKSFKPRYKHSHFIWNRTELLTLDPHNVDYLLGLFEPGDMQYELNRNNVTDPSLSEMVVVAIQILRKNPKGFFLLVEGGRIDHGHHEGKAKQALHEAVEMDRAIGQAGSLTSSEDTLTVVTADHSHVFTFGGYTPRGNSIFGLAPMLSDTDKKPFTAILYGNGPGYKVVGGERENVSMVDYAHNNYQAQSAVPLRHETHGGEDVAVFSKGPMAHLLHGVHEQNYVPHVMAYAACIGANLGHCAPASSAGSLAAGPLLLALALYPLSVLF
Description: TNAP enzyme inhibition by screening hits, dose response, selectivity assay for mouse IAP inhibitor project, biochemical, human TNAP, uHTS hits (AID 488906). It counts as functional.

The target in experiment [10] is Intestinal-type alkaline phosphatase (Mus musculus, UniProt P24822). Kind of experiment: PubChem AID 488785. It counts as functional.
Experiment [11] deals with T2, Trace amine-associated receptor 1 (Homo sapiens, UniProt Q96RJ0).
T2 sequence (Q96RJ0 whole entry): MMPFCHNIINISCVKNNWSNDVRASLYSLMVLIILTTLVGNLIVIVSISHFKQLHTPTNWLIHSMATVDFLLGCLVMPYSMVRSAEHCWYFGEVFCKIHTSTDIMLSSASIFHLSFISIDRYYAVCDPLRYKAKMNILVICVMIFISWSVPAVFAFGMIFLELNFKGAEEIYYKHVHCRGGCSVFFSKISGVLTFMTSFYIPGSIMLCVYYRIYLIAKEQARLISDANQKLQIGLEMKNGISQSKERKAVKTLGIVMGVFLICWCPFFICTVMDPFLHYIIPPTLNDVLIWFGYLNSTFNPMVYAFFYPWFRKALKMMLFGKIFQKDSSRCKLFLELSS
Description: Counterscreen for agonists of the human trace amine associated receptor 1 (hTAAR1): Fluorescence-based cell-based high throughput dose response assay to identify hTAAR1 agonist that also desensitize TAAR1 receptor response. It counts as functional.

Experiment [12] addresses Intestinal-type alkaline phosphatase (Homo sapiens, UniProt P09923). Kind of experiment: inhibition of human intestinal alkaline phosphatase – biochemical, dose response (AID 488876). The experiment is classed as functional.
Experiment [13] can be described thus: HEp-2 cell cytotoxicity, dose response, cytotoxicity control for RSV inhibitor project, HTS (AID 2410). It counts as functional. Particulars: human respiratory syncytial virus.
For a further experiment, the system named is Vero. Kind of experiment: Vero cell cytotoxicity, cytotoxicity control for flavivirus capping enzyme inhibitors (AID 588742). The experiment is classed as functional. Particulars: Chlorocebus sabaeus.
A short description of experiment [14]: THP-1 cell cytotoxicity, dose response, cytotoxicity control for Vif-APOBEC3G degradation inhibitor project, THP-1 cells (AID 1117359). It counts as functional. Particulars: Human immunodeficiency virus 1, THP-1.
In another experiment the target is Caspase-6 (Homo sapiens, UniProt P55212). Kind of experiment: human caspase-6 inhibitors, dose response, biochemical, VEID-R110 fluorescence, cherry-pick (AID 720632).
The target of experiment [15] is T3, Histone-lysine N-methyltransferase NSD2 (Homo sapiens, UniProt O96028).
T3 sequence (O96028 whole entry): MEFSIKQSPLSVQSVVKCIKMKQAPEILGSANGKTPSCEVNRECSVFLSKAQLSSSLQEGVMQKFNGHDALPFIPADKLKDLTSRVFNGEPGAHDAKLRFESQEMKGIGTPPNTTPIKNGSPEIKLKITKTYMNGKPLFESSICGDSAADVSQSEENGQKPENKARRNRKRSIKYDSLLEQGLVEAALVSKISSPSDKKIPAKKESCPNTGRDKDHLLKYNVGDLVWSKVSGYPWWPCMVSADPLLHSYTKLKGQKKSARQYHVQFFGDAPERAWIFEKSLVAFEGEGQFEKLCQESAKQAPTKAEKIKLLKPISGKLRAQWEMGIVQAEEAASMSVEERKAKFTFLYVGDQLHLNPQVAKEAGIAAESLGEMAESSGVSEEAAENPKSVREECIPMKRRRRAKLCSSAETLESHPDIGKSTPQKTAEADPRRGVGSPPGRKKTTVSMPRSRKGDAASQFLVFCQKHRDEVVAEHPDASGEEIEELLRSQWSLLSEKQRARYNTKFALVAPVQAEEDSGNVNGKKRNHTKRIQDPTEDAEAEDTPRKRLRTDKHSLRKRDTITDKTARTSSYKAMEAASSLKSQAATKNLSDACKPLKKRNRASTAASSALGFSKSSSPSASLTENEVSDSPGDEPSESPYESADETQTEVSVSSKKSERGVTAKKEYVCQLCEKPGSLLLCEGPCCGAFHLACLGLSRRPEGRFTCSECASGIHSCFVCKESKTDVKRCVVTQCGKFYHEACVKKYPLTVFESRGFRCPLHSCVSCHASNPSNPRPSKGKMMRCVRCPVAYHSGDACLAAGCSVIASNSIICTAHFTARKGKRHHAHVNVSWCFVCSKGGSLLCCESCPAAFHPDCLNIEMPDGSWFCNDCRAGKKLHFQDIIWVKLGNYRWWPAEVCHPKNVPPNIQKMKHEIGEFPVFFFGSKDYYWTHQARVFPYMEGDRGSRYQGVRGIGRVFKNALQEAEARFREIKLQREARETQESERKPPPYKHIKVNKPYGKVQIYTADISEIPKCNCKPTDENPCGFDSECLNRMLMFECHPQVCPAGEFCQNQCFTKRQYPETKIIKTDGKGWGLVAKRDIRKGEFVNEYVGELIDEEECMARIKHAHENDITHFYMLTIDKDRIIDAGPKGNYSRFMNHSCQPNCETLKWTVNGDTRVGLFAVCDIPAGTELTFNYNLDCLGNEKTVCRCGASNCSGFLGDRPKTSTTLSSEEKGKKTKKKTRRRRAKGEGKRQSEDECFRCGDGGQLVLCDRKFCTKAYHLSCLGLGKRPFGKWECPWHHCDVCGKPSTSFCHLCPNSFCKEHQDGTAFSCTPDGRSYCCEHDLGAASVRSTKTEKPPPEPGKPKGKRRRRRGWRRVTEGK
The experiment is classed as biochemical.

Experiment [16] can be described thus: cells. It counts as functional, cell-based.
Experiment [17] in a line: cells. The experiment is classed as functional, cell-based. The source holds these as a separate data set.
For experiment [18], the target named is T2, Trace amine-associated receptor 1. Kind of experiment: Fluorescence-based cell-based high throughput dose response assay to identify agonists of the human trace amine associated receptor 1 (TAAR1). The experiment is classed as functional.

Sequence of Exodeoxyribonuclease V (P04993 whole entry): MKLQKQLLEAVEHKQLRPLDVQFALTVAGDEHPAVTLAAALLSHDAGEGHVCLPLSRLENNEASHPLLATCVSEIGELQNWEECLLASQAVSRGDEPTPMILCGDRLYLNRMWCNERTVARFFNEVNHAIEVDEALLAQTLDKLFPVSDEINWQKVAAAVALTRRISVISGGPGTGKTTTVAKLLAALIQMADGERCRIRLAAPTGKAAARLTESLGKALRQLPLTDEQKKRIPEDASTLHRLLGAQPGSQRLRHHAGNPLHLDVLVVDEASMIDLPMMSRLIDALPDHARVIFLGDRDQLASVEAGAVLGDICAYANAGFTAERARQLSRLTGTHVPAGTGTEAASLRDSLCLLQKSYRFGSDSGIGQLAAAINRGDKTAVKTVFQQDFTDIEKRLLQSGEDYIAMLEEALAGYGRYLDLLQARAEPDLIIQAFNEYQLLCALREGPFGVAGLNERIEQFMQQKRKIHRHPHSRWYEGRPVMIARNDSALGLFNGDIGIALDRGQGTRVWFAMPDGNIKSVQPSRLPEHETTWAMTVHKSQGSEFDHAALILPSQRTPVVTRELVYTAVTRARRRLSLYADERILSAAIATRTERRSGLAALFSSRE
Sequence of Exodeoxyribonuclease V (P07648 whole entry): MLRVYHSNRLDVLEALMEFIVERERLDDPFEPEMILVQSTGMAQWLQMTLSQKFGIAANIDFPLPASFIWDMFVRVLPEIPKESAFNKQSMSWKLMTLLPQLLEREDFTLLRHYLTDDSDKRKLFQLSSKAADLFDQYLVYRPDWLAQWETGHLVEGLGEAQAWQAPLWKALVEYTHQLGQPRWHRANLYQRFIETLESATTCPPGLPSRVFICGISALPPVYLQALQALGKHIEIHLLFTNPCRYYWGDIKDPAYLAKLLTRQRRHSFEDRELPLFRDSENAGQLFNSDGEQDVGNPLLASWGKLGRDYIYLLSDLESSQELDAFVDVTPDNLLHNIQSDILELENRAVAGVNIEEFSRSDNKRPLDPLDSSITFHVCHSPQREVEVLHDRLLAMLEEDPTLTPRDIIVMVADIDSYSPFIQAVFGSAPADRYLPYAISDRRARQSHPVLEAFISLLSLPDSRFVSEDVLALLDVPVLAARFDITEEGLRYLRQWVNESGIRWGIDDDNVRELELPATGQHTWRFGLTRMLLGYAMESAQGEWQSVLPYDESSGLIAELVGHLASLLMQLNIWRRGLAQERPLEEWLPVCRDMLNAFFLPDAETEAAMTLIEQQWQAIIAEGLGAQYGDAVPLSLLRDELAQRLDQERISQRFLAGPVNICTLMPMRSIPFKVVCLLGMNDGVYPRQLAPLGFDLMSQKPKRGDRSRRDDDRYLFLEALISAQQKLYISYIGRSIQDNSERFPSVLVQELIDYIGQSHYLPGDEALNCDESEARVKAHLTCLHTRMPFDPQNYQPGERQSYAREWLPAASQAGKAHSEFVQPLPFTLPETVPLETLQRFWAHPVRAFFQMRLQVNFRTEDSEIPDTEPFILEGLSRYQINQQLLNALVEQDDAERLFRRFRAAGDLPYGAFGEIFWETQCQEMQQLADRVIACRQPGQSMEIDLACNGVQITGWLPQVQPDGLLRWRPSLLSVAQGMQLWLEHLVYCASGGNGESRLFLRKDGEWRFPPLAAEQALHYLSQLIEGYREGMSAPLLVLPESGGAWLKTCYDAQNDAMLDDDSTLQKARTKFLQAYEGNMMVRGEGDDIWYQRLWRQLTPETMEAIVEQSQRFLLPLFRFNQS
Sequence of Exodeoxyribonuclease V (P08394 whole entry): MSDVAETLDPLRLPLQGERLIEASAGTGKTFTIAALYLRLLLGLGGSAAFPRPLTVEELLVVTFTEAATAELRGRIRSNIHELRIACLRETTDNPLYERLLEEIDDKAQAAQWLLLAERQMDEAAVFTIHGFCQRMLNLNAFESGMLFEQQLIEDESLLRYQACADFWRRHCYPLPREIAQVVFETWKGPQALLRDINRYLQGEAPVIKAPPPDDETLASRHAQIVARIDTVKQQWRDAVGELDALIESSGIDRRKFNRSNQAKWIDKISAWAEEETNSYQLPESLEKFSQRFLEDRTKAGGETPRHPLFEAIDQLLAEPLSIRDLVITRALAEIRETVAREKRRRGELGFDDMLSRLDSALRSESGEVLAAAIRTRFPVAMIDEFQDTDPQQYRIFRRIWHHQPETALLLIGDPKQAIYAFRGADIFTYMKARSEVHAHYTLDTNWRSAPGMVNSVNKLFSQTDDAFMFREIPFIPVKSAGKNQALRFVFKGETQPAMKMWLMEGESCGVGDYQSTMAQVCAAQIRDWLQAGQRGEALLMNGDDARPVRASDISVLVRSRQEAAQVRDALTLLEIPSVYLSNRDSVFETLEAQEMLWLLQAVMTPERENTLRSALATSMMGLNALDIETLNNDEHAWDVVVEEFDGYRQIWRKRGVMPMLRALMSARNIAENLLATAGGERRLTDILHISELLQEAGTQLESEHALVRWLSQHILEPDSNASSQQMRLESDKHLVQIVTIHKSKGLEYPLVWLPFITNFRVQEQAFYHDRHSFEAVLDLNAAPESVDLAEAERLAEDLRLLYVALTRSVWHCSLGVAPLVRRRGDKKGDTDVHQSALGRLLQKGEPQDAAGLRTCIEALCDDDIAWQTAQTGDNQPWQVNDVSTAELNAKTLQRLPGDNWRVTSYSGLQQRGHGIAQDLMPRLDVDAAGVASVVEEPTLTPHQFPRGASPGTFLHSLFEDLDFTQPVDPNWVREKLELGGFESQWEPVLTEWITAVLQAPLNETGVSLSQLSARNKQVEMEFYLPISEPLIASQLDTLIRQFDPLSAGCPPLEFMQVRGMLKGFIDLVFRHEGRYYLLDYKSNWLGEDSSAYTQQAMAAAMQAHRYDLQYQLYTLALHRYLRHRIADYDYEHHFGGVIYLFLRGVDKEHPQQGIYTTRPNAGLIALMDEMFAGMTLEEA
Sequence of Protein Wnt-3a (P27467 whole entry): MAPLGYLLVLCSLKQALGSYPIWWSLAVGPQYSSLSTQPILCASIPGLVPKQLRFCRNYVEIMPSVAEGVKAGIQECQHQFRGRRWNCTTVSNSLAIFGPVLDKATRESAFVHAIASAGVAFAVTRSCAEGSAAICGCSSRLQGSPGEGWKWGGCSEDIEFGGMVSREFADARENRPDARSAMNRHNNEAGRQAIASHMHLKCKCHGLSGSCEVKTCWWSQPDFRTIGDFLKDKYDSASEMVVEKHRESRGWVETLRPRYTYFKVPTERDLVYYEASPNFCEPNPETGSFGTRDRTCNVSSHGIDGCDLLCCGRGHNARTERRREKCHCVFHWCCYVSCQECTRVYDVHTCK
Sequence of Intestinal-type alkaline phosphatase (Mus musculus, UniProt P24822) (P24822 whole entry): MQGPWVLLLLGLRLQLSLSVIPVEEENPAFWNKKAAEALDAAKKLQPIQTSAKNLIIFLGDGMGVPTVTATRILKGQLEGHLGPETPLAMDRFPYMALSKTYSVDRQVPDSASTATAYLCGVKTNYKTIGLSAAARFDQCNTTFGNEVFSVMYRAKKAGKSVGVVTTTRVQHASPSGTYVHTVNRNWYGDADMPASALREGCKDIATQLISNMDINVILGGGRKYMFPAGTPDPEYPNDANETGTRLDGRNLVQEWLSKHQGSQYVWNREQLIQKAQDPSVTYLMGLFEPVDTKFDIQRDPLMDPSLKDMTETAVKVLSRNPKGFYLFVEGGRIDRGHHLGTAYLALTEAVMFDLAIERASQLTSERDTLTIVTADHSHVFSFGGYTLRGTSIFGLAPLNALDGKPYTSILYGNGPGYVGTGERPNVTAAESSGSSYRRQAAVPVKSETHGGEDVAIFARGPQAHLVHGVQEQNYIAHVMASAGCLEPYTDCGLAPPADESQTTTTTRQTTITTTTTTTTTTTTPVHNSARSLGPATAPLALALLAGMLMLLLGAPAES
Sequence of Caspase-6 (P55212 24-179 limits assumed): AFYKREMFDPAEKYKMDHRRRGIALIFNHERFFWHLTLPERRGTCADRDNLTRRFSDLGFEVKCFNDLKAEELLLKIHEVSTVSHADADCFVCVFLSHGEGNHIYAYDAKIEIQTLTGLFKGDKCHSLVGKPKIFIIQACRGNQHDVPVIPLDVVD
Sequence of Caspase-6 (P55212 194-293 limits assumed): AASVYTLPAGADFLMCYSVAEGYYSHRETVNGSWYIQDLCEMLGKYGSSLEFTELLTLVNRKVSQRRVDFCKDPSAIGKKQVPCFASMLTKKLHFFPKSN
Sequence of Intestinal-type alkaline phosphatase (Homo sapiens, UniProt P09923) (P09923 whole entry): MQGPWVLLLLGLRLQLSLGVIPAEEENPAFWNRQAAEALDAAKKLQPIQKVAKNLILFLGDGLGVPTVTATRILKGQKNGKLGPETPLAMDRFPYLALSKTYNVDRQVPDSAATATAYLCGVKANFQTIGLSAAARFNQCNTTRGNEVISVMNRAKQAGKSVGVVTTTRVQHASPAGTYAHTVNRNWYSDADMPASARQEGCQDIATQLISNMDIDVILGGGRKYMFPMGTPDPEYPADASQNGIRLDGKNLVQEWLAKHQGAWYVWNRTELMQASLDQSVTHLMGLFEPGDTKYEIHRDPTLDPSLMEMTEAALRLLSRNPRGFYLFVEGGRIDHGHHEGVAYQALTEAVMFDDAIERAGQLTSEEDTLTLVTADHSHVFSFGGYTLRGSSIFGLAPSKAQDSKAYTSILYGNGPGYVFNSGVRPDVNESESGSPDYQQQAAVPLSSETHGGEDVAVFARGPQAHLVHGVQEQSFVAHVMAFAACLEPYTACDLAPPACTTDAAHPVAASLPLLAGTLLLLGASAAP
Sequence of G-protein coupled receptor 55 (Q9Y2T6 whole entry): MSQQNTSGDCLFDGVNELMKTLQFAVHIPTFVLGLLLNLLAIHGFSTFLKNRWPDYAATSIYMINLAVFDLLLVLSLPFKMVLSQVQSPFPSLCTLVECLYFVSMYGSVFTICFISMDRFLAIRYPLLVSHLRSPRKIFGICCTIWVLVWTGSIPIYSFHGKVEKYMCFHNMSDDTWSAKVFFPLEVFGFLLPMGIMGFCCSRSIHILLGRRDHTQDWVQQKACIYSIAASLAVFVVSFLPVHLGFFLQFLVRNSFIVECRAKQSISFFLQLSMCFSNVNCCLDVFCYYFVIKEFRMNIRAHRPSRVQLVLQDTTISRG

Regarding `COc1ccc(NS(=O)(=O)c2ccc(NC(C)=O)cc2)cc1OC`, the IC50 was 3.44 µM (active) in experiment [1], 2.22 µM (active) in experiment [2] and 12 µM (active) on Protein Wnt-3a.

In the case of `O=C(CSc1[nH]cnc2ncnc1-2)c1ccc(Cl)cc1`, the CC50 in experiment [3] was > 40 µM (active). Besides, the IC50 in experiment [4] was 61.1 µM (inactive); at Exodeoxyribonuclease V, > 119 µM (inactive). Moreover, the AC50 in experiment [5] was 2.81 µM (active).

As to `CS(=O)(=O)N(CC(=O)NCc1ccco1)c1ccccc1Cl`, the concentration at half-maximal activity (AC50) in [6] was 18.4 µM (active).

Consider `Cc1ccc(OCCC(=O)NCCc2ccc(S(N)(=O)=O)cc2)cc1`, for which, in experiment [7], the IC50 was > 32 µM (inactive).

With `CC(C)Cc1nnc(NC(=O)COc2ccc(F)cc2Cl)o1`, in experiment [8], the EC50 is 10 µM (active).

Consider `O=[N+]([O-])c1ccccc1NC(=S)N/N=C/c1ccc(O)c(O)c1`, for which the IC50 was 1.53 µM (active) in experiment [9]; 0.216 µM (active) in experiment [10]; 7.2 µM (active) in [11]; > 100 µM (inactive) in experiment [12]; 23.5 µM (inactive) in the experiment “cells [17]”. Moreover, the CC50 in [13] is 11.7 µM (active); with Vero, 22.8 µM (active); in experiment [14], 25.5 µM (active). The AC50 at Caspase-6 is 1.56 µM (active); in experiment [15], 1.34 µM (active). In addition, the EC50 was > 29.9 µM (inactive) in the experiment “cells [16]” and 4.15 µM (active) in [18].

The term AC50 denotes the concentration giving half of the maximal activity seen. The EC50 is the midpoint of the concentration-response curve.
